Data as given in patent US9340543B2, “Helquat derivatives, preparation thereof, and use thereof as medicaments” (USTAV ORGANICKE CHEMIE A BIOCHEMIE AKADEMIE VED CR, V.V.I., priority 2013, dated 2016).
Structures can show the parent of a compound that is named as a salt. One block for each compound: values may come before it.

Columns and labels:
CCRF-CEM = experiment: CellTiter-Glo luminescent cell viability assay (ATP quantification), CCRF-CEM; type: cell-based; settings: acute lymphoblastic leukemia cells, 72 h treatment, viable cells by ATP luminescence
Experimental: (§1) Influence of the test compounds on viability (proliferation) of cell lines used was investigated in concentration range 0-100 μmol·l^−1.
Suspension cell line CCRF-CEM is a permanent in vitro culture of acute lymphoblastic leukemia. CCRF-CEM cell line was cultivated in RPMI 1640 medium (Sigma-Aldrich, cat. no. R8758) with addition of 2 mmol·l^−1 glutamine (Invitrogen, cat. no. 35050-038), 10% fetal bovine serum (FBS, Sigma-Aldrich, cat. no. F9665), 100 IU/ml peniciline, 100 μg/ml streptomycine (Sigma-Aldrich, cat. no. P0781). Passaging was performed 2-3× a week. Population doubling time of CCRF-CEM cell line was 20 h under the cultivation conditions used.
(§2) In order to test the sensitivity of the cell lines towards the studied helquats, cytotoxity test for cell viability assessment based on ATP quantification in cell lysates was used (CellTiter-Glo® Luminescent Cell Viability Assay, Promega, cat. no. G7571). In this test, ATP in cell lysates is detected using luciferase reaction. Luminescence intensity correlates with the ATP level and thus with quantity of metabolically active (viable) cells. IC50 value serves as the output, that is the concentration of the test compound which leads to 50% reduction in number of viable cells as compared to control, untreated population. To this end, IC50 value reflects efficiency of the test compound with regard to the given cell line.
(§3) Cells in the exponential growth phase were seeded into a 96-well microtiter plate were plated at 3000 cells per well. Each well contained 90 μl of cell suspension. The next day, 10 μl of 10× concentrated test compound solutions were added. The effect of helquats was investigated in concentration range 1 to 100 μmol·l^−1 (e.g. 1; 2.5; 5; 7.5; 10; 15; 25; 50 and 100 μmol·l^−1). Apart from the section containing the concentration series of the test compound, each well contained 2 control columns, the first with pure medium (so called blank) and the second with cells in medium without the test compounds (control). Into wells containing controls and blanks, volume of solvent (water) equal to the volume of added compound solutions was added. After 72 h of incubation with the test compounds viability was determined according to the manufacturer's instructions. In short: microtiter well plate was left 30 min to reach the room temperature after it has been removed from the incubator. Then, into each well, 100 μl of the prepared detection agent was added. Next, the well plate was shaken for 2 min to complete the full lysis. Next, after the well had been left in the dark for 15 min, the luminescence was measured in each well using luminometer (Tecan Genios, Austria).
(§4) IC50 value represents concentration of the test compound, which leads to 50% reduction of viable cells (inhibition of cell growth) after 72 h of the treatment. Each helquat concentration was tested in triplicates in a IC50 quantification and at least 3 independent IC50 quantification experiments were performed. IC50 values over 100 μmol·l^−1 were obtained by extrapolation of data measured in concentration range 0-100 μmol·l^−1 for the given helquat.

MOLT-4 = experiment: CellTiter-Glo luminescent cell viability assay (ATP quantification), MOLT-4; type: cell-based; settings: acute lymfoblastic leukemia cells, 72 h treatment, viable cells by ATP luminescence
Experimental: as §1
(§5) Suspension cell line MOLT-4 is a permanent in vitro culture of acute lymfoblastic leukemia. Linie MOLT-4 cell line was cultivated in RPMI 1640 medium (Sigma-Aldrich, see above) with addition of 2 mmol glutamine (Invitrogen, see above), 10% fetal bovine serum (FBS, Sigma-Aldrich, see above), 100 IU/ml peniciline, 100 μg/ml streptomycine (Sigma-Aldrich, see above). Passaging was performed 2-3× a week. Population doubling time of MOLT-4 cell line was 25 h under the cultivation conditions used.
as §2, §3, §4

HeLa = experiment: CellTiter-Glo luminescent cell viability assay (ATP quantification), HeLa; type: cell-based; settings: cervical cancer cells, 72 h treatment, viable cells by ATP luminescence
Experimental: as §1
Adherent cell line HeLa is a permanent in vitro culture derived from cervical cancer. HeLa cell line was cultivated in RPMI 1640 medium (Dutch modification) (Sigma-Aldrich, cat. no. R7638) with addition of 2 mmol·l^−1 glutamine (Invitrogen, see above), 10% fetal bovine serum (FBS, Sigma-Aldrich, see above), 100 IU/ml peniciline, 100 μg/ml streptomycine (Sigma-Aldrich, see above). Passaging was performed twice a week. After washing of cells with sterile PBS the cells were released by 0.25% trypsin/EDTA (Sigma-Aldrich, cat. no. T4049) at 37° C. for 2 minutes. The trypsin was inactivated by addition of 2 volumes of complete medium, cells were then centrifuged (250×g, 5 min), the cell pellet was resuspended, and transferred in the amount needed into a new cultivation bottle with fresh medium. Population doubling time of […] cell line was 25 h under the cultivation conditions used.
as §2, §3, §4

HL-60 = experiment: CellTiter-Glo luminescent cell viability assay (ATP quantification), HL-60; type: cell-based; settings: acute promyelocytic leukemia cells, 72 h treatment, viable cells by ATP luminescence
Experimental: as §1
as §5, with “HL-60” for “MOLT-4”, “promyelocytic” for “lymfoblastic”, “HL-60” for “Linie MOLT-4”, “mmol·l^−1” for “mmol”, “23” for “25”
as §2, §3, §4

LoVo = experiment: CellTiter-Glo luminescent cell viability assay (ATP quantification), LoVo; type: cell-based; settings: Homo sapiens, LoVo; colorectal carcinoma cells, 72 h treatment, viable cells by ATP luminescence; class symbols
Experimental: as §1
(§6) Adherent cell line LoVo is a permanent in vitro culture derived from tissue of a patient with colorectal carcinoma. LoVo cell line was cultivated in DMEM medium (Sigma-Aldrich, cat. no. D8437) with addition of 2 mmol·l^−1 glutamine (Invitrogen, see above), 10% fetal bovine serum (FBS, Sigma-Aldrich, see above), 100 IU/ml peniciline, 100 μg/ml streptomycine (Sigma-Aldrich, see above). Passaging was performed twice a week. After washing of cells with sterile PBS, the cells were released by 0.25% trypsin/EDTA (Sigma-Aldrich, see above) at 37° C. for 2 minutes. The trypsin was inactivated by addition of 2 volumes of complete medium, cells were then centrifuged (250×g, 5 min), resuspended, and transferred in the amount needed into a new cultivation bottle with fresh medium. Population doubling time of LoVo cell line was 39 h under the cultivation conditions used.
as §2, §3, §4

HUVEC = experiment: CellTiter-Glo luminescent cell viability assay (ATP quantification), HUVEC normal cells; type: cell-based, human; settings: 72 h treatment
Experimental: as §1
Normal human endothelial cells from umbilical vein are adherent cells cultivated in plastic Petri dishes coated with collagen I. Into the cultivation medium (E-STIM™; BD Biosciences, cat. co. 355054) already containing 2% FBS (fetal bovine serum), hydrocortisone and heparin the following two further ingredients were added: epidermal growth factor (EGF, 5 μg) and mixture of factors facilitating growth of endothelial cells (ECGS, 100 mg). […] The cells were passaged after reaching 90% confluency by dissociation using 0.25% solution of trypsin/EDTA (1 ml; 3 min; 37° C.). After that 5 ml of complete cultivation medium E-STIM™ was added and the cells were centrifuged (180×g, 7 min), the pellet was resuspended, and transferred in the amount needed into a new Petri dish with fresh medium. The cells were used in experiments between the 3rd and the 8th passage after defreezing. Population doubling time of HUVEC cell line was 38 h under the cultivation conditions used.
as §2, §3, §4

NHDF-Ad = experiment: CellTiter-Glo luminescent cell viability assay (ATP quantification), NHDF-Ad normal cells; type: cell-based; settings: normal human dermal fibroblasts, 72 h treatment
Description: as §1
Normal human dermal fibroblasts were cultivated without antibiotics in basal medium for fibroblasts (ATCC/LGC Standards, cat. no. PCS-201-030) with added “Fibroblast Growth Kit-Low serum” (ATCC/LGC Standards, cat. no. PCS-201-041) containing 2% FBS, L-glutamine, hydrocortisone, ascorbic acid, rh FGF beta, rh insulin. When 90% confluency was reached the fibroblasts were washed with sterile PBS (5 ml) and dissociated by addition of 0.25% solution of trypsin/EDTA (2 ml; 2 min; 37° C.). After that 5 ml of cultivation medium for fibroblasts was added and the cells were centrifuged (180×g, 7 min), the cell pellet was resuspended, and transferred in the amount needed into a new cultivation bottle with fresh medium. The same cell release procedure was applied when the cells were to be used in experiments. The cells were used in experiments between the 3rd and the 15th passage after defreeezing. Population doubling time of NHDF-Ad cell line was 33 h under the cultivation conditions used.
as §2, §3, §4

Hep G2 = experiment: CellTiter-Glo luminescent cell viability assay (ATP quantification), Hep G2; type: cell-based; settings: Homo sapiens, HepG2; hepatocellular carcinoma cells, 72 h treatment, viable cells by ATP luminescence
Experimental: as §1
as §6, with “Hep G2” for “LoVo”, “from liver” for “from”, “hepatocellular” for “colorectal”, “M4528)” for “D8437)”, “28” for “39”
as §2
as §3, with “In short: microtiter well plate was left 30 min to reach the room temperature after it has been removed from the incubator. Then, into each well, 100 μl of the prepared detection agent was added. Next, the well plate was shaken for 2 min to complete the full lysis.” left out, “Austria). […]” for “Austria).”

IC50 (CCRF-CEM; Homo sapiens, CCRF-CEM): 11 to 50 µM
IC50 (MOLT-4; Homo sapiens, MOLT-4): 11 to 50 µM
IC50 (HeLa; Homo sapiens, HeLa): 11 to 50 µM
IC50 (HL-60; Homo sapiens, HL-60): 11 to 50 µM
IC50 (LoVo): 51 to 150 µM
Structure (SMILES): C(=C\c1cc[n+]2c(c1)-c1c(ccc3c1-c1c4ccccc4cc[n+]1CCC3)CCC2)/c1cc2c3c(c1)CCCN3CCC2 (racemic) [(rac)-25, (rac)-(E)-19-(2-(1,2,3,5,6,7-hexahydropyrido[3,2,1-ij]quinolin-9-yl)vinyl)-8,9,10,13,14,15-hexahydropyrido[1′″,2′″:1″,2″]azepino[4″,3″:5′,6′]benzo[1′,2′:3,4]azepino[2,1-a]isoquinoline-7,16-diium trifluoromethanesulfonate]
IC50 (HUVEC; HUVEC, normal human endothelial cells, numeric bound, values over 100 obtained by extrapolation of data measured at 0-100 μmol·l−1): > 150 µM
IC50 (NHDF-Ad; Fibroblast, numeric bound, values over 100 obtained by extrapolation of data measured at 0-100 μmol·l−1): > 150 µM

IC50 (CCRF-CEM): 11 to 50 µM
IC50 (MOLT-4): 11 to 50 µM
IC50 (HeLa): 11 to 50 µM
IC50 (HL-60): 11 to 50 µM
Structure (SMILES): COc1ccc2cc(/C=C/c3cc[n+]4c(c3)-c3c(c(C)c(C)c5c3-c3c6ccccc6cc[n+]3CC5)CC4)ccc2c1 [(P)-7, (P)-(E)-13-(2-(6-methoxynaphthalene-2-yl)vinyl)-6,7-dimethyl-4,5,8,9-tetrahydroiso-quinolino[1,2-a]pyrido[1,2-k][2,9]phenanthroline-3,10-diium trifluoromethanesulfonate]
IC50 (HUVEC; normal human endothelial cells from umbilical vein, viable cells by ATP luminescence, class symbols): 51 to 150 µM
IC50 (NHDF-Ad; viable cells by ATP luminescence, class symbols): 51 to 150 µM

melting point: 318 to 322 °C
Structure (SMILES): CN(C)c1ccc(/C=C/c2cccc3[n+]2CCCc2ccc4c(c2-3)-c2cccc(/C=C/c3ccc(N(C)C)cc3)[n+]2CCC4)cc1 (racemic) (as salt: methanesulfonate) [(rac)-41, (rac)-4,15-bis((E)-4-(dimethylamino)styryl)-6,7,8,11,12,13-hexahydro-dipyrido[1,2-a:1′,2′-a′]benzo[2,1-c:3,4-c′]bisazepinediium trifluoromethanesulfonate]

IC50 (CCRF-CEM; Homo sapiens, CCRF-CEM): 11 to 50 µM
IC50 (MOLT-4; Homo sapiens, MOLT-4): 51 to 150 µM
IC50 (HeLa; Homo sapiens, HeLa): 11 to 50 µM
IC50 (LoVo): 51 to 150 µM
Structure (SMILES): Cc1c(C)c2c(c3c1CC[n+]1ccc4ccccc4c1-3)-c1cccc(/C=C/c3cc4c5c(c3)CCCN5CCC4)[n+]1CC2 (racemic) [(rac)-12, (rac)-(E)-11-(2-(1,2,3,5,6,7-hexahydropyrido[3,2,1-ij]yl)vinyl)-6,7-dimethyl-4,5,8,9-tetrahydroisoquinolino[1,2-a]pyrido[1,2-k][2,9]phenanthroline-3,10-diium trifluoromethanesulfonate]
IC50 (Hep G2): 11 to 50 µM
IC50 (HUVEC; HUVEC, normal human endothelial cells from umbilical vein, viable cells by ATP luminescence, class symbols): 51 to 150 µM
IC50 (NHDF-Ad; Fibroblast, viable cells by ATP luminescence, class symbols): 51 to 150 µM
